Patent US6600057B2, “Matrix metalloproteinase inhibitors” (Kimberly-Clark Worldwide, Inc., priority 2000, dated 2003)

Target: MMP-9 (Homo sapiens, UniProt P14780)
Assay: Fluorometric assay of MMP-9 inhibition (cleavage of a fluorogenic peptide substrate)
Type: biochemical
Conditions: incubated 30 minutes at room temperature
Procedure: The second assay utilized the technique of fluorescence resonance energy transfer (FRET). The substrate peptide (Calbiochem) comprised seven amino acids coupled to a carboxyl terminal dinitrophenyl acceptor, and an amino terminal 2-aminobenzo-anthraniloyl (Abz) moiety donor. Cleavage of this substrate by MMP-9 results in the liberation of a fluorescent product (365 nm excitation, 450 nm emission). […] MMP at a concentration of 0.5 μM was mixed with varying amounts of compound and incubated at 25° C. for 10 minutes in order to effect binding. The protein mixture was added to the peptide substrate, and was quickly mixed. Fluorescence intensity as a function of time was measured with a Dynex MFX fluorescence microtiter plate reader. Fluorescence intensity was related back to moles of peptide cleaved by producing a standard curve with an Abz containing non-FRET peptide. Inhibitory constants were derived from the curves as above. (Segel, IH. (1993) Enzyme Kinetics: Behavior and analysis of rapid equilibrium and steady-state enzyme systems. Wiley Classics Library, John Wiley and Sons, Inc. New York.)
The inhibition of MMP-9 by AQCA was measured by fluorometric assay. The fluorometric assay measures the cleavage of a fluorogenic peptide substrate (excitation wavelength 355 nm, emission wavelength 455 nm). MMP-9 is incubated with 0 mM AQCA (open circles), 1 mM AQCA (closed circles); or 2 mM AQCA (closed squares) for 30 minutes at room temperature. Fluorescence is measured at the times (in minutes) indicated.
Inhibition of MMP-9. Fluorometric assay which measures the cleavage of a fluorogenic peptide substrate (excitation wavelength 355 nm, emission wavelength 455 nm). […] Fluorescence is measured at the times (in minutes) indicated.
The inhibition of MMP-9 by anthraquinyl-mercaptoethylamine was measured by fluorometric assay. […] Fluorescence is measured at the times (in minutes) indicated.
The inhibition of MMP-9 by anthraquinyl alanine hyroxamate was measured by fluorometric assay. […] Fluorescence is measured at the times (in minutes) indicated.

[1] = 0.25 mM compound, FIG. 3 and FIG. 4

MMP-9, sequence (P14780 94-707, species assumed): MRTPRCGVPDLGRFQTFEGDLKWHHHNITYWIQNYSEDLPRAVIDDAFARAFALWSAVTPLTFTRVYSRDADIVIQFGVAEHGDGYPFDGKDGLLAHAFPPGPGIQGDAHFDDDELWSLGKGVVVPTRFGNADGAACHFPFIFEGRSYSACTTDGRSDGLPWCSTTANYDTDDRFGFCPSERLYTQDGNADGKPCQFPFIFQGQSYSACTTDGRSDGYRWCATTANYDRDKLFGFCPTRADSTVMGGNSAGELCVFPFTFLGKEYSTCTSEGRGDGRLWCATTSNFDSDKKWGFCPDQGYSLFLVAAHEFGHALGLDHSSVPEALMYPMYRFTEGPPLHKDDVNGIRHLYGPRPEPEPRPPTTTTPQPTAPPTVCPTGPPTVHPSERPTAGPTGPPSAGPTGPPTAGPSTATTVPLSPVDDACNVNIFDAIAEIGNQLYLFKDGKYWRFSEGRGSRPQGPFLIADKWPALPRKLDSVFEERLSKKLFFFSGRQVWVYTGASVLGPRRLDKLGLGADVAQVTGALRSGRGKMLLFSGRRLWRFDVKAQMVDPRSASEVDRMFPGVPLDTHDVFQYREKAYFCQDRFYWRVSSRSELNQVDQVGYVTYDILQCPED

SMILES | inhibition of the enzymatic activity of MMP-9 [1] | inhibition of the enzymatic activity of MMP-9 (1 mM or 2 mM AQCA, FIG. 2)
CC(NC(=O)c1cc(O)c2c(c1)C(=O)c1cccc(O)c1C2=O)C(=O)NO (stereo not drawn) [anthraquinyl alanine hyroxamate, anthraquinyl-alanine hydroxamate] | inhibited the enzymatic activity of MMP-9 | –
O=C(NCCS)c1cc(O)c2c(c1)C(=O)c1cccc(O)c1C2=O [anthraquinyl mercaptoethylamine, anthraquinyl-mercaptoethyamine] | inhibited the enzymatic activity of MMP-9 | –
O=C(O)c1cc(O)c2c(c1)C(=O)c1cccc(O)c1C2=O [AQCA, 4,5-dihydroxyanthaquinone-2-carboxylic acid] | – | inhibited the enzymatic activity of MMP-9 in a dose dependent manner
